The structures appear in SMILES notation.

Ba/F3 EGFR-D770-N771ins_SVD, sequence (P00533 with tags, fused parts or gaps DUP768-770): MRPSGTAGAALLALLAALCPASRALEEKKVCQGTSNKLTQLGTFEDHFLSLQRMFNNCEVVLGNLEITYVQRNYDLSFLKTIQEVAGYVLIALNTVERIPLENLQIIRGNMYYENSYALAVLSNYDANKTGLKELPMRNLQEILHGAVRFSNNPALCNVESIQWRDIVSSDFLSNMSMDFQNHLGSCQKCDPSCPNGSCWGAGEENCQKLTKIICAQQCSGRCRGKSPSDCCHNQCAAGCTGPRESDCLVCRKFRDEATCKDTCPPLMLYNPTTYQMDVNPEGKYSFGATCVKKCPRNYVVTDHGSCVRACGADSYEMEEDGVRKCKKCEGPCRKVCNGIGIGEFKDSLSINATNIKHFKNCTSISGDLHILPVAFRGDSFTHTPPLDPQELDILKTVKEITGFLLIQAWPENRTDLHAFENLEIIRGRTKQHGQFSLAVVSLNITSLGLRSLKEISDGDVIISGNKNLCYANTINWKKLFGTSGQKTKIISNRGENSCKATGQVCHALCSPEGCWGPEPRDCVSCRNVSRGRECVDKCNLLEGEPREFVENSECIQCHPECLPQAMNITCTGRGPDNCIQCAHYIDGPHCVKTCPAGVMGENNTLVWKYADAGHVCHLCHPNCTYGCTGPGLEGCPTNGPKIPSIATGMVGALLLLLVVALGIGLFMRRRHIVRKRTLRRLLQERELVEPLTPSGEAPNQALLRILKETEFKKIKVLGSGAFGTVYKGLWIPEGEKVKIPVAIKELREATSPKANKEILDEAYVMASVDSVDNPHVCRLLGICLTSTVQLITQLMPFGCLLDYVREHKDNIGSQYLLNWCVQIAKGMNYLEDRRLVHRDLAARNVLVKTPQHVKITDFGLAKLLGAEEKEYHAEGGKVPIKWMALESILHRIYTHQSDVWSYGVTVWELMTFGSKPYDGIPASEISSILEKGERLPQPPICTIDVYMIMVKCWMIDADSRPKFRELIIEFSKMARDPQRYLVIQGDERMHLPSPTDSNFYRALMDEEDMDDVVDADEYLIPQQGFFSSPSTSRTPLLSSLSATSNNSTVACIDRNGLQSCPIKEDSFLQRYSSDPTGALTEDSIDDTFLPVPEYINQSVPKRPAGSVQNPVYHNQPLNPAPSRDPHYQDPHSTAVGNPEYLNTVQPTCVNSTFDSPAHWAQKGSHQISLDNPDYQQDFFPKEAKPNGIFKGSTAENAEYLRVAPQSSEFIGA

The assay concerns the target Ba/F3 EGFR-D770-N771ins_SVD (Homo sapiens, UniProt P00533, DUP768-770, cells depend on it). In words: Cell proliferation study (CellTiter-Glo, 72 hrs), Ba/F3 EGFR-D770-N771ins_SVD. The format is cell-based. The following applies: CTG, * = average of multiple measurements, read-out: Ba/F3 EGFR-D770-N771ins_SVD IC50. How it is done:
(I) Reagents and Materials
• Fetal bovine serum FBS (GBICO, Cat #10099-141); • CellTiter-Glo® luminescent cell viability assay kit (Promega, Cat #G7572); • Black transparent flat-bottom 96-well plate (Corning®, Cat #3603). (II) Instruments • SpectraMax multi-label microplate reader MD, 2104-0010A; • Carbon dioxide incubator, Thermo Scientific 3100 series; • Biological safety cabinet, Thermo Scientific, 1300 series model A2; • Inverted microscope, Olympus, CKX41SF; • Siemens refrigerator KK25E76T1. (III) Cell Lines and Culture Conditions
(IV) Experimental Procedures 1. Cell Culture and Inoculation: • (1) Cells in the logarithmic growth phase were harvested and counted using a […]. The cell viability was determined by the trypan blue dye exclusion method to ensure cell viability above 90%. • (2) The cell concentration was adjusted to reach a desired final density; 90 μL of cell suspension was added to a 96-well plate. • (3) The cells were incubated overnight in the 96-well plate at 37° C., 5% CO2 and with 95% humidity. 2. T0 Benchmark Data: • (1) 10 μL of PBS was added to each well of the TO plate containing the cells. • (2) The CTG reagent was thawed and the cell plate was equilibrated to room temperature for 30 min. • (3) An equal volume of CTG solution was added to each well. • (4) The cells were lysed by shaking on an orbital shaker for 5 min. • (5) The cell plate was left to stand at room temperature for 20 min to stabilize the fluorescence signal. • (6) The fluorescence signal values of TO were read. 3. Dilution and Addition of Compounds • (1) According to the compound information table, a corresponding volume of DMSO was added to the corresponding compound powder to prepare a 10 mM stock solution. • (2) A 1000-fold, 3.16-fold-diluted compound solution was prepared. • (3) The 1000× diluted compound solution was diluted 100-fold with PBS to prepare a 10-fold compound solution with a maximum concentration of 10 μM, including 9 concentrations, with 3.16-fold dilution, and 10 μL of the medicament solution was added to each well of the 96-well plate to seed the cells. Triplicate wells were set for each compound concentration, with a final concentration of DMSO being 0.1%. • (4) The cells were placed in the 96-well plate containing the medicament at 37° C., 5% CO2 and with 95% humidity, and cultured for 72 hrs before CTG analysis. 4. Fluorescence Signal Reading • (1) The CTG reagent was thawed and the cell plate was equilibrated to room temperature for 30 min. • (2) An equal volume of CTG solution was added to each well. • (3) The cells were lysed by shaking on an orbital shaker for 5 min. • (4) The cell plate was left to stand at room temperature for 20 min to stabilize the fluorescence signal. • (5) The fluorescence values were read. 5. Data Processing
Data were analyzed using GraphPad Prism 7.0 software and fitted data were regressed using non-linear S-curves to obtain dose-response curves from which IC50 values (in nM) were calculated.
For the molecule `C=CC(=O)Nc1cc(Nc2ncc(C(=O)OC(C)C)c(N3CC(C)(C)c4nc(C)ccc43)n2)c(OC)cc1N1CC[C@H](N(C)C)C1` [Example 13, isopropyl (S)-2-((5-acrylamido-4-(3-(dimethyl-amino)pyrrolidin-1-yl)-2-methoxy-phenyl)amino)-4-(3,3,5-trimethyl-2,3-dihydro-1H-pyrrolo[3,2-b]pyridin-1-yl)pyrimidine-5-carboxylate], the GI50 is 78.3 nM.
On to `C=CC(=O)Nc1cc(Nc2ncc(C(=O)OC(C)C)c(N3CC(C)(C)c4nc(C(=C)C)ccc43)n2)c(OC)cc1N(C)CCN(C)C` [Example 14, isopropyl 2-((5-acrylamido-4-((2-(dimethylami-no)ethyl)(methyl)amino)-2-methoxy-phenyl)amino)-4-(3,3-dimethyl-5-(prop-1-en-2-yl)-2,3-dihydro-1H-pyrrolo[3,2-b]pyridin-1-yl)pyrimidine-5-carboxylate], for which the GI50 was 39 nM.
For the molecule `C=CC(=O)Nc1cc(Nc2ncc(C(=O)OC(C)C)c(N3CC(C)(C)c4nc(C(C)C)ccc43)n2)c(OC)cc1N(C)CCN(C)C` [Example 16, isopropyl 2-((5-acrylamido-4-((2-(dimethylami-no)ethyl)(methyl)amino)-2-methoxy-phenyl)amino)-4-(5-isopropyl-3,3-dimethyl-2,3-dihydro-1H-pyrrolo[3,2-b]pyridin-1-yl)pyrimidine-5-carboxylate], the GI50 was determined as 309 nM.
As to `C=CC(=O)Nc1cc(Nc2ncc(C(=O)OC(C)C)c(N3CC(C)(C)c4nc(C(F)(F)F)ccc43)n2)c(OC)cc1N(C)CCN(C)C` [Example 17, isopropyl 2-((5-acrylamido-4-((2-(dimethylami-no)ethyl)(methyl)amino)-2-methoxy-phenyl)amino)-4-(3,3-dimethyl-5-(trifluoromethyl)-2,3-dibydro-1H-pyrrolo[3,2-b]pyridin-1-yl)pyrimidine-5-carboxylate], the GI50 amounted to 135 nM.
On to `C=CC(=O)Nc1cc(Nc2ncc(C(=O)OC(C)C)c(N3CC(C)(C)c4nc(C#CC5CC5)ccc43)n2)c(OC)cc1N(C)CCN(C)C` [Example 18, isopropyl 2-((5-acrylamido-4-((2-(dimethylami-no)ethyl)(methyl)amino)-2-methoxy-phenyl)amino)-4-(5-(cyclo-propylethynyl)-3,3-dimethyl-2,3-dihydro-1H-pyrrolo[3,2-b]pyridin-1-yl)pyrimidine-5-carboxylate], for which the GI50 came to 50.8 nM.
As to `C=CC(=O)Nc1cc(Nc2ncc(C(=O)OC(C)C)c(N3CC(C)(C)c4nc(C#CC(C)C)ccc43)n2)c(OC)cc1N(C)CCN(C)C` [Example 19, isopropyl 2-((5-acrylamido-4-((2-(dimethylami-no)ethyl)(methyl)amino)-2-methoxy-phenyl)amino)-4-(3,3-dimethyl-5-(3-methylbut-1-yn-1-yl)-2,3-dihydro-1H-pyrrolo[3,2-b]pyridin-1-yl)pyrimidine-5-carboxylate], the GI50 came to 119 nM.
The result for `C=CC(=O)Nc1cc(Nc2ncc(C(=O)OC(C)C)c(N3CC(C)(C)c4nc(C#N)ccc43)n2)c(OC)cc1N(C)CCN(C)C` [Example 23, isopropyl 2-((5-acrylamido-4-((2-(dimethylami-no)ethyl)(methyl)amino)-2-methoxy-phenyl)amino)-4-(5-cyano-3,3-dimethyl-2,3-dihydro-1H-pyrrolo[3,2-b]pyridin-1-yl)pyrimidine-5-carboxylate] reads 92.2 nM.
The result for `C=CC(=O)Nc1cc(Nc2ncc(C(=O)OC(C)C)c(N3CC4(CC(F)(F)C4)c4nc(C)ccc43)n2)c(OC)cc1N(C)CCN(C)C` [Example 24, isopropyl 2-((5-acrylamido-4-((2-(dimethylami-no)ethyl)(methyl)amino)-2-methoxy-phenyl)amino)-4-(3,3-difluoro-5′-methylspiro(cyclobutane-1,3′-pyrrolo[3,2-b]pyridin)-1′(2′H)-yl)pyrimidine-5-carboxylate] reads 111 nM.
In the case of `C=CC(=O)Nc1cc(Nc2ncc(C(=O)OC(C)C)c(N3CC(C)(C)c4nc(C)ccc43)n2)c(OC(C)C)cc1N(C)CCN(C)C` [Example 28, isopropyl 2-((5-acrylamido-4-((2-(dimethylami-no)ethyl)(methyl)amino)-2-isopropoxy-phenyl)amino)-4-(3,3,5-trimethyl-2,3-dihydro-1H-pyrrolo[3,2-b]pyridin-1-yl)pyrimidine-5-carboxylate], the GI50 is 204 nM.
For `C=CC(=O)Nc1cc(Nc2ncc(C(=O)OC(C)C)c(N3CC(C)(C)c4nc(C)ccc43)n2)c(OC2CC2)cc1N(C)CCN(C)C` [Example 32, isopropyl 2-((5-acrylamido-2-cyclopropoxy-4-((2-(dimethylamino)ethyl)(methyl)ami-no)phenyl)amino)-4-(3,3,5-trimethyl-2,3-dihydro-1H-pyrrolo[3,2-b]pyridin-1-yl)pyrimidine-5-carboxylate], the GI50 worked out at 44.4 nM.
Turning to `C=CC(=O)Nc1cc(Nc2ncc(C(=O)OC(C)C)c(N3CC(C)(C)c4nc(C)ccc43)n2)c(OC)cc1N1CCN(C)CC1` [Example 33, isopropyl 2-((5-acrylamido-2-methoxy-4-(4-methylpiperazin-1-yl)phenyl)amino)-4-(3,3,5-trimethyl-2,3-dihydro-1H-pyrrolo[3,2-b]pyridin-1-yl)pyrimidine-5-carboxylate], the GI50 is 503 nM.
With `C=CC(=O)Nc1cc(Nc2ncc(C(=O)OC(C)C)c(N3CC(C)(C)c4nc(C)ccc43)n2)c(OC)cc1N1CCN(CC)CC1` [Example 34, isopropyl 2-((5-acrylamido-4-(4-ethylpiperazin-1-yl)-2-methoxyphenyl)amino)-4-(3,3,5-trimethyl-2,3-dihydro-1H-pyrrolo[3,2-b]pyridin-1-yl)pyrimidine-5-carboxylate], the GI50 was 443 nM.
As for `C=CC(=O)Nc1cc(Nc2ncc(C(=O)OC(C)C)c(N3CC(C)(C)c4nc(C)ccc43)n2)c(OCC)cc1N(C)CCN(C)C` [Example 37, isopropyl 2-((5-acrylamido-4-((2-(dimethylami-no)ethyl)(methyl)amino)-2-ethoxy-phenyl)amino)-4-(3,3,5-trimethyl-2,3-dihydro-1H-pyrrolo[3,2-b]pyridin-1-yl)pyrimidine-5-carboxylate], the GI50 is 72.9 nM.
With `C=CC(=O)Nc1cc(Nc2ncc(C(=O)OC(C)C)c(N3CC(C)(C)c4nc(N5CCC5)ccc43)n2)c(OC)cc1N(C)CCN(C)C` [Example 38, isopropyl 2-((5-acrylamido-4-((2-(dimethylami-no)ethyl)(methyl)amino)-2-methoxy-phenyl)amino)-4-(5-(azetidin-1-yl)-3,3-dimethyl-2,3-dihydro-1H-pyrrolo[3,2-b]pyridin-1-yl)pyrimidine-5-carboxylate] the figure was 339 nM.
For the molecule `C=CC(=O)Nc1cc(Nc2ncc(C(=O)OC(C)C)c(N3CC(C)(C)c4nc(C)ccc43)n2)c(OC)cc1N1CCN(C2CC2)CC1` [Example 39, isopropyl 2-((5-acrylamido-4-(4-cyclopropyl-piperazin-1-yl)-2-methoxy-phenyl)amino)-4-(3,3,5-trimethyl-2,3-dihydro-1H-pyrrolo[3,2-b]pyridin-1-yl)pyrimidine-5-carboxylate], the GI50 was 545 nM.

The values are drawn from patent US12692264B2, “Pyrimidine or pyridine derivative, preparation method therefor, and application thereof in pharmacy” (ABBISKO THERAPEUTICS CO., LTD., priority 2021, dated 2026).
